In experiment [1] the target is T1, rat-species vanilloid receptor 1 (VR1/TRPV1) (Rattus norvegicus, UniProt O35433).
T1 construct: endogenous in cells; host or cells: primary cells dissociated from rat dorsal root ganglia (DRG)
Description: Functional testing on vanilloid receptor 1 (VR1/TRPV1): FLIPR Ca2+ inflow assay in rat dorsal root ganglia cells (% activation / % inhibition vs capsaicin). The class given is cell-based. The note with it: for inhibition at 10 µM: inhibition compared to 10 μM CP (capsaicin); for activation at 10 µM: stimulation compared to 10 μM CP (capsaicin). The essentials:
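Rat dorsal root ganglion cells, dissociated with collagenase and trypsin, were plated at 3×10^5/mL on laminin-coated plates in NGF-containing HAMS F12 and cultured 2-3 days at 37° C. Ca2+ inflow read by Fluo-4 fluorescence on FLIPR; test compounds at 10 μM referenced to 10 μM capsaicin.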

In experiment [2] the target is T2, vanilloid receptor (VR1) (Homo sapiens, UniProt Q8NER1).
T2 construct: expressed in transfected cells; host or cells: CHO K1 cells (ECACC), stably transfected
Description: Functional testing on vanilloid receptor (VR1): FLIPR Ca2+ inflow assay in CHO K1 cells stably transfected with the VR1 gene. The class given is cell-based. The following applies: for inhibition at 10 µM: CHO-K1, inhibition compared to 10 μM CP (capsaicin); for activation at 10 µM: CHO-K1, stimulation compared to 10 μM CP (capsaicin). The gist of the method: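 CHO K1 cells stably expressing VR1, loaded with Fluo-4 (2 μM, 30 min, 37° C); peak Ca²⁺ fluorescence read on FLIPR. Compound (10 μM) added first, agonism as % of 10 μM capsaicin signal; after 5 min, 100 nM capsaicin added, % inhibition calculated relative to maximal inhibition with 10 μM capsaicin.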

T2 sequence (Q8NER1 whole entry): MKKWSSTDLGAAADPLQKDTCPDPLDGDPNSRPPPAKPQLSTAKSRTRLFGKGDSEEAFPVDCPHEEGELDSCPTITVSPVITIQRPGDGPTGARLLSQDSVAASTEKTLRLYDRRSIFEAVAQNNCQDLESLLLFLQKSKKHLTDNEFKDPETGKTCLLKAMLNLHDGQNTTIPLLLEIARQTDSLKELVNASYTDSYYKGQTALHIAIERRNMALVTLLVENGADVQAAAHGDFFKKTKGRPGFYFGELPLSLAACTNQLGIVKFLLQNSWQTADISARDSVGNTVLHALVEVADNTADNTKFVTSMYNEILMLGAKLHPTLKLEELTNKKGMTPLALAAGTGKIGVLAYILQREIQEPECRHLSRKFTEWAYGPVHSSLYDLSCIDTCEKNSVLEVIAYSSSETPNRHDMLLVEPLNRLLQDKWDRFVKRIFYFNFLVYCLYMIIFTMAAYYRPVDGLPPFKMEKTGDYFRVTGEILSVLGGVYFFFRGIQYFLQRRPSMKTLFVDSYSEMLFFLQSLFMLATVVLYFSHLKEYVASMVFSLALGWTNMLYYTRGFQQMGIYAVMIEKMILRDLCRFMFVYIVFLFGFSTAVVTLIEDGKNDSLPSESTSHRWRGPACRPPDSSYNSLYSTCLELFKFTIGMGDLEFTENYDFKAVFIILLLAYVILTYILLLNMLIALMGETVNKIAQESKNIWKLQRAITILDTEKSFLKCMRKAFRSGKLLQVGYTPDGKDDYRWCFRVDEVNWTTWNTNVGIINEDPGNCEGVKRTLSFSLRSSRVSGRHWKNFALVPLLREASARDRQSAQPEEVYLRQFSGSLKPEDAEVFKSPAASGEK
T1 sequence (O35433 whole entry): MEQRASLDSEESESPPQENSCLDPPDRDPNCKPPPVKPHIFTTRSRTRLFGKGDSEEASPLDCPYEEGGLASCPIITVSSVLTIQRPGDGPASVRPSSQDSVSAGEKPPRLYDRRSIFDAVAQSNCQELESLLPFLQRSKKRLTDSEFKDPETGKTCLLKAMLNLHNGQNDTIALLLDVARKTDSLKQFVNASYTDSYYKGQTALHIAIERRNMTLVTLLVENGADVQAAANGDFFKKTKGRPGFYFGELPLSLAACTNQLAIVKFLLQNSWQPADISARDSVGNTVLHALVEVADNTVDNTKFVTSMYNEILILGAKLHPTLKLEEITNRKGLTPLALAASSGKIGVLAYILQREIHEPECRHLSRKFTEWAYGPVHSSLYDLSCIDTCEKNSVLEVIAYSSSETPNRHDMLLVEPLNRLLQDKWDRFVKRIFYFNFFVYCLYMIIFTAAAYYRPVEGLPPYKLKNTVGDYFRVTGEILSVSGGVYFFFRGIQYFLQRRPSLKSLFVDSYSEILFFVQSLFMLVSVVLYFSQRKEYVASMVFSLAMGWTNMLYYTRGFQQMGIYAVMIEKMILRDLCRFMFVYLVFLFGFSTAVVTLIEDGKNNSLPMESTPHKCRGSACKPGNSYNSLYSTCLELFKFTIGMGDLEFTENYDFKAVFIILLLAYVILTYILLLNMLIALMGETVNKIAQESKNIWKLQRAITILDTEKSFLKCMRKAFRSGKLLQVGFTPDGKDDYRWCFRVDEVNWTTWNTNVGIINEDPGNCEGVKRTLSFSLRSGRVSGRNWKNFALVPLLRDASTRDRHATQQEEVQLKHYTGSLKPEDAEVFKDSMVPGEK

As usually defined, the inhibition is the relative decrease from the control value, in per cent. Consider `O=C(Nc1cccc(Br)c1)N1CCC2(CC1)CC(c1ccccc1)=NO2` [Compound 193, 3-phenyl-1-oxa-2,8-diazaspiro[4.5]dec-2-ene-8-carboxylic acid-(3-bromophenyl)amide], for which, in experiment [1], the inhibition at 10 µM came out at 43.6% and the activation at 10 µM is -0.17%. For the same compound, in experiment [2], the inhibition at 10 µM was -2.64% and the activation at 10 µM was 0.11%.

On to `O=C(Nc1ccc(I)cc1)N1CCC2(CC1)CC(c1ccccc1)=NO2` [Compound 44, 3-phenyl-1-oxa-2,8-diazaspiro[4.5]dec-2-ene-8-carboxylic acid-(4-iodophenyl)amide], for which, in experiment [1], the inhibition at 10 µM worked out at 85.6% and the activation at 10 µM was -0.73%. In experiment [2], the inhibition at 10 µM is -4.4% and the activation at 10 µM is -0.15%.

Consider `CCc1ccccc1NC(=O)N1CCC2(CC1)CC(c1cccc(OC)c1)=NO2` [Compound 156, 3-(3-methoxyphenyl)-1-oxa-2,8-diazaspiro[4.5]dec-2-ene-8-carboxylic acid-(2-ethylphenyl)amide], for which, in experiment [1], the inhibition at 10 µM stood at 48.2% and the activation at 10 µM was determined as 0.2%. Further, in experiment [2], the inhibition at 10 µM was -7.89% and the activation at 10 µM turned out to be 0.69%.

With `COc1cccc(C2=NOC3(CCN(C(=O)Nc4ccc(C(C)C)cc4)CC3)C2)c1` [Compound 77, 3-(3-methoxyphenyl)-1-oxa-2,8-diazaspiro[4.5]dec-2-ene-8-carboxylic acid-(4-isopropylphenyl)amide], in experiment [1], the inhibition at 10 µM was 95.4% and the activation at 10 µM was 3.81%. Also, in experiment [2], the inhibition at 10 µM is 5.49% and the activation at 10 µM stood at 0.1%.

Take `CC(C)c1ccc(NC(=O)N2CCC3(CC2)CC(c2ccc(C(C)(C)C)cc2)=NO3)cc1` [Compound 80, 3-(4-tert-butylphenyl)-1-oxa-2,8-diazaspiro[4.5]dec-2-ene-8-carboxylic acid-(4-isopropylphenyl)amide]: in experiment [1], the inhibition at 10 µM turned out to be 62.1% and the activation at 10 µM is -0.47%. Further, in experiment [2], the inhibition at 10 µM was 3.6% and the activation at 10 µM worked out at 0.89%.

In the case of `COc1cc(C2=NOC3(CCN(C(=O)Nc4ccc(C(C)(C)C)cc4)CC3)C2)ccc1Cl` [Compound 378, N-(4-tert-butylphenyl)-3-(4-chloro-3-methoxyphenyl)-1-oxa-2,8-diazaspiro[4.5]dec-2-ene-8-carboxamide], in experiment [1], the inhibition at 10 µM stood at 99% and the activation at 10 µM turned out to be 33%. In addition, in experiment [2], the inhibition at 10 µM worked out at 81% and the activation at 10 µM amounted to 42%.

What is called IC50 is the point on the concentration scale where inhibition reaches its midpoint. For `CC(C)(C)c1ccc(NC(=O)N2CCC3(CC2)CC(c2ccccc2)=NO3)cc1` [Compound 141, 3-phenyl-1-oxa-2,8-diazaspiro[4.5]dec-2-ene-8-carboxylic acid-(4-tert-butylphenyl)amide], 78 nM corresponded to half-maximal inhibition in experiment [1] (capsaicin (CAP) stimulus, average) (IC50). Further, in experiment [1], the inhibition at 10 µM came to 98.5% and the activation at 10 µM was found to be 0.42%. Besides, in experiment [2], the inhibition at 10 µM stood at 20.4% and the activation at 10 µM is -0.3%.

As for `CC(C)(C)c1ccc(NC(=O)N2CCC3(CC2)CC(c2ccccc2F)=NO3)cc1` [Compound 352, N-(4-tert-butylphenyl)-3-(2-fluorophenyl)-1-oxa-2,8-diazaspiro[4.5]dec-2-ene-8-carboxamide], the inhibition at 10 µM in experiment [1] is 95%; in experiment [2], -3%. Moreover, the activation at 10 µM in experiment [1] stood at 7%; in experiment [2], 2%.

For the compound `CC1CN(C(=O)/C=C/c2ccc(C(F)(F)F)nc2N2CCCCC2)CCC12CC(c1ccccc1)=NO2` (stereo not shown) [Compound 367, (E)-1-(6-methyl-3-phenyl-1-oxa-2,8-diazaspiro[4.5]dec-2-en-8-yl)-3-(2-(piperidin-1-yl)-6-(trifluoromethyl)pyridin-3-yl)prop-2-en-1-one], in experiment [1], the inhibition at 10 µM was 96% and the activation at 10 µM was -1%. Also, in experiment [2], the inhibition at 10 µM stood at 93% and the activation at 10 µM is 0%.

The record behind these values is patent US8772307B2, “Substituted spiro compounds and their use for producing pain-relief medicaments” (Gruenenthal GmbH, priority 2005, dated 2014).
